Patent US4581231A (priority 1983, dated 1986)
Like-named read-outs stand apart in the source and are kept apart here.

Experiments:
Factor VIII:c = conditions: Factorate
Experimental: (§1) Lyophilized Factor VIII (Factorate--Armour) was extracted with chloroform using three different procedures.
(§2) A. 1 gram of Factorate (dry powder) was mixed at 4° C. for 20 minutes with 20 ml of cold chloroform. The chloroform was then removed by filtration and the dry powder was washed on the filter with an additional 10 ml of cold chloroform.
(§3) B. 1 gram of Factorate (dry powder) was mixed with 10 ml of cold chloroform at 4° C. for 10 minutes. The chloroform was removed by filtration and the powder was washed on the filter with 5 ml of cold chloroform. This process was then repeated a second time.
(§4) C. 1 gram of Factorate (dry powder) was mixed with 20 ml of chloroform at room temperature for 20 minutes. The chloroform was removed by filtration and the dry powder was washed on the filter with 10 ml of chloroform at room temperature.

Fibrinogen = conditions: Factorate
Experimental: as §1, §2, §3, §4

Fibronectin = conditions: Factorate
Experimental: as §1, §2, §3, §4

Hepatitis B virus [1] = test system: Hepatitis B virus; set-up: species or system rhesus monkeys; conditions: rhesus monkey, in vivo
Avian influenza virus [2] = conditions: 10% (v/v) chloroform
Polio Virus Type 1 = conditions: 10% (v/v) chloroform
Vaccinia Virus [3] = conditions: 10% (v/v) chloroform
[4] = test system: non-A, non-B hepatitis virus (H strain)
Hepatitis B virus [5] = conditions: in vivo
Vaccinia virus [6] = conditions: for inactivation of vaccinia virus: dry product 20 minutes, Factor 8; for Percent Inactivation: Vaccinia, dry state 20 min, Factor VIII
Avian influenza virus [7] = conditions: for Percent Inactivation: Influenza, dry state 20 min, Factor VIII
Vaccinia virus [8] = test system: Vaccinia virus
[9] = preliminary, uncontrolled, 10^-2 dilution of H plasma, 5% v/v chloroform

ClC(Cl)Cl [Chloroform, chloroform]
Factor VIII Units/ml (Factor VIII:c; 4° C. 1 × Extracted (control 9.1)): 8.9 Units/ml | Factor VIII Units/ml (Factor VIII:c; 4° C. 2 × Extracted (control 9.1)): 9.3 Units/ml | Factor VIII Units/ml (Factor VIII:c; Room Temp. Extraction (control 9.1)): 9.5 Units/ml | Fibrinogen (Fibrinogen; 4° C. 1 × Extracted (control 8.9 mg)): 9.3 mg/mL | Fibrinogen (Fibrinogen; 4° C. 2 × Extracted (control 8.9 mg)): 8.6 mg/mL | Fibrinogen (Fibrinogen; Room Temp. Extraction (control 8.9 mg)): 9.3 mg/mL | Fibronectin (Fibronectin; 4° C. 1 × Extracted (control 1.11 mg)): 1.19 mg/mL | Fibronectin (Fibronectin; 4° C. 2 × Extracted (control 1.11 mg)): 1.29 mg/mL | Fibronectin (Fibronectin; Room Temp. Extraction (control 1.11 mg)): 1.14 mg/mL | inactivation of the virus (Hepatitis B virus [1]): inactivated | Virus Titer Log10 ID50 /0.1 ml after CHCl3 extraction (coliphage .phi.×174): 9.0 Log10 ID50 /0.1 ml | reaction of control virus to chloroform treatment (coliphage .phi.×174): essentially unaffected | reaction of control virus to chloroform treatment (Avian influenza virus [2]): totally inactivated | Virus Titer Log10 ID50 /0.1 ml after CHCl3 extraction (Polio Virus Type 1; Polio virus type 1 in Fetal Calf Serum, 1:100, 10 min, room temperature): 6.5 Log10 ID50 /0.1 ml | reaction of control virus to chloroform treatment (Polio Virus Type 1; poliovirus): essentially unaffected | Virus Titer Log10 ID50 /0.1 ml after CHCl3 extraction (Vaccinia Virus [3]; Vaccinia virus in Fetal Calf Serum, 1:100, 10 min, room temperature): ≤ 0.5 Log10 ID50 /0.1 ml | reaction of control virus to chloroform treatment (Vaccinia Virus [3]; Vaccinia virus): totally inactivated | inactivation of 10^4 chimpanzee infectious doses ([4]; 10^4 chimpanzee infectious doses of the H strain of NANB): inactivated | evidence of hepatitis ([4]; chimpanzee 947, following either chloroform-treated or sham-treated H plasma): no evidence of hepatitis | biochemical evidence of hepatitis (weekly ALT levels) ([4]; chimpanzees 889 and 947, chloroform-treated H plasma, 10% (v/v) chloroform): none of these animals developed biochemical evidence of hepatitis | incubation period [4, 9]: 9.5 weeks | infectivity after chloroform treatment [4, 9]: still infectious | virus titer (indicated by incubation period) [4, 9]: reduced | anti-HBs / anti-HBc response (Hepatitis B virus [5]): did develop anti-HBs but not anti-HBc | biochemical evidence of hepatitis (weekly ALT levels) (Hepatitis B virus [5]): none of these animals developed biochemical evidence of hepatitis | inactivation of vaccinia virus (Vaccinia virus [6]; 4°): not inactivated | inactivation of vaccinia virus (Vaccinia virus [6]; 20° and 40° C.): partially inactivated | Percent Inactivation (Vaccinia virus [6]; 4° C.): 0% | Percent Inactivation (Vaccinia virus [6]; 20° C.): 70% | Percent Inactivation (Vaccinia virus [6]; 40° C.): 70% | Percent Inactivation (Avian influenza virus [7]; 4° C.): 99.8% | Percent Inactivation (Avian influenza virus [7]; 20° C.): 90% | completeness of inactivation of avian influenza virus (Avian influenza virus [7]; dry product 20 minutes, Factor 8): inactivation was not complete | inactivation of avian influenza virus (Avian influenza virus [7]; dry product 20 minutes, Factor 8, similar conditions of treatment): 90-99.8% | inactivation of vaccinia virus (Vaccinia virus [8]; after 20 minutes, dry state, room temperature (20° C.)): 90% | inactivation of vaccinia virus (Vaccinia virus [8]; after 2 hours, dry state, room temperature (20° C.)): 98% | inactivation of vaccinia virus (Vaccinia virus [8]; after 4 hours or more, dry state, room temperature (20° C.)): completely inactivated | inactivation of vaccinia virus (Vaccinia virus [8]; regardless whether in the liquid or dry state, longer time required when dry): completely inactivated

CCOCC [ether, diethyl ether]
inactivation of the virus (Hepatitis B virus [1]): inactivated
